Test results taken from ChEMBL document CHEMBL1149752, “Antitumor agents, 135. Structure and stereochemistry of polacandrin, a new cytotoxic triterpene from Polanisia dodecandra” (1992).
Values after ≈ are worked out from the molar mass of the structure shown.

Assays:
Format in all cases: functional
Conditions in all cases: read-out: ED50 (the source's name)
KB = test: Cytotoxicity against human KB cells
P388 = test: Cytotoxicity against mouse P388 cells
RPMI-7951 = test: Cytotoxicity against human RPMI7951 cells
HCT-8 = test: Cytotoxicity against human HCT8 cells

With `CC(C)(O)[C@@H]1CC[C@@](C)([C@H]2CC[C@]3(C)[C@@H]2[C@H](O)C[C@@H]2[C@@]4(C)[C@H](O)C[C@@H](O)C(C)(C)[C@@H]4CC[C@]23C)O1` [POLACANDRIN] the EC50 (KB) was 0.6 µg/mL (≈ 1.22 µM), the EC50 (P388) was 0.9 µg/mL (≈ 1.83 µM) and the EC50 (RPMI-7951) was 0.62 µg/mL (≈ 1.26 µM). For the same compound, the EC50 (HCT-8) was 6.06 µg/mL (≈ 12.3 µM).
